Values of other authors in US20210386367A1, “DEVICES AND SYSTEMS FOR GASTROINTESTINAL MICROBIOME DETECTION AND MANIPULATION” (Progenity, Inc., priority 2018, published 2021).
Converted amounts (≈) assume the structure as drawn. Read-outs that look alike come from different tables or passages of the source.

Key:
Conditions in all cases: cited from earlier work
[1] = test system: Klebsiella spp.
[2] = test system: Haemophilus influenzae
[3] = test system: Citrobacter spp.
[4] = test system: Veillonella
[5] = test system: Bacteroides fragilis
[6] = test system: Enterobacter spp.
[7] = test system: XDR Enterobacteriaceae
[8] = test system: Bacteroides vulgatus
[9] = test system: Klebsiella pneumoniae
[10] = test system: Pseudomonas aeruginosa
[11] = test system: Prevotella bivia
[12] = test system: Staphylococcus aureus
[13] = test system: Proteus mirabilis
[14] = test system: Escherichia coli
[15] = test system: Bacteroides thetaiotaomicron
[16] = test system: MDR Enterobacteriaceae
[17] = test system: Lactobacillus spp.
[18] = test system: Clostridium spp.
[19] = test system: Bacteroides fragilis; remark: listed apart in the source
[20] = test system: Klebsiella pneumoniae; remark: listed apart in the source
[21] = test system: Bacteroides thetaiotaomicron; remark: listed apart in the source
[22] = test system: Escherichia coli; remark: listed apart in the source
[23] = test system: Streptococcus agalactiae
[24] = test system: Escherichia coli; remark: listed apart in the source
[25] = test system: Enterobacter spp.; remark: listed apart in the source
[26] = test system: Bacteroides fragilis; remark: listed apart in the source
[27] = test system: Enterococcus faecalis
[28] = test system: Enterococcus spp.
[29] = test system: Bacteroides vulgatus; remark: listed apart in the source
[30] = test system: Bacteroides thetaiotaomicron; remark: listed apart in the source
[31] = test system: Prevotella spp.
[32] = test system: Klebsiella spp.; remark: listed apart in the source
[33] = test system: Fusobacterium spp
[34] = test system: Bacteroides spp

## C[C@@H](O)[C@H]1C(=O)N2C(C(=O)O)=C(S[C@@H]3CN[C@H](C(=O)N(C)C)C3)[C@H](C)[C@H]12 [meropenem]
[1]
  % S: 78.3%
  MIC50: ≤0.06 µg/mL
  MIC90: >8 µg/mL
[2]
  MIC50: ≤0.125 µg/mL
  MIC90: 0.5 µg/mL (≈ 1.3 µM)
[3]
  % S: 99%
  MIC50: 0.03 µg/mL (≈ 0.0782 µM)
  MIC90: 0.06 µg/mL (≈ 0.156 µM)
[4]
  % S: 100%
  MIC50: ≤0.03 µg/mL
  MIC90: ≤0.03 µg/mL
  MIC range: ≤0.03 to 0.25 µg/mL
[5]
  % S: 94.5%
  MIC50: 0.25 µg/mL (≈ 0.652 µM)
  MIC90: 4 µg/mL (≈ 10.4 µM)
[6]
  % S: 57.5%
  MIC50: 0.5 µg/mL (≈ 1.3 µM)
  MIC90: 64 µg/mL (≈ 167 µM)
[7]
  % S: 20.5%
  MIC50: 8 µg/mL (≈ 20.9 µM)
  MIC90: >8 µg/mL
[8]
  % S: 100%
  MIC50: 0.5 µg/mL (≈ 1.3 µM)
  MIC90: 1 µg/mL (≈ 2.61 µM)
  MIC range: 0.125 to 1 µg/mL
[9]
  % S: 38.3%
  MIC50: 8 µg/mL (≈ 20.9 µM)
  MIC90: 64 µg/mL (≈ 167 µM)
[10]
  % S: 64.2%
  MIC50: 1 µg/mL (≈ 2.61 µM)
  MIC90: >8 µg/mL
[11]
  % S: 100%
  MIC50: 0.03 µg/mL (≈ 0.0782 µM)
  MIC90: ≤0.03 µg/mL
  MIC range: ≤0.03 to 0.06 µg/mL
[12]
  MIC50: ≤0.12 µg/mL
  MIC90: 4 µg/mL (≈ 10.4 µM)
[13]
  % S: 95.5%
  MIC50: 0.12 µg/mL (≈ 0.313 µM)
  MIC90: 0.25 µg/mL (≈ 0.652 µM)
  MIC range: 0.12 to 16 µg/mL
[14]
  % S: 83.1%
  MIC50: ≤0.06 µg/mL
  MIC90: 32 µg/mL (≈ 83.4 µM)
[15]
  % S: 100%
  MIC50: 0.25 µg/mL (≈ 0.652 µM)
  MIC90: 0.5 µg/mL (≈ 1.3 µM)
[16]
  % S: 75%
  MIC50: ≤0.12 µg/mL
  MIC90: >8 µg/mL

## CO/N=C(\C(=O)N[C@@H]1C(=O)N2C(C(=O)O)=C(CSc3nc(=O)c(=O)[nH]n3C)CS[C@H]12)c1csc(N)n1 [ceftriaxone]
[17]
  MIC50: 4 µg/mL (≈ 7.21 µM)
  MIC90: 8 µg/mL (≈ 14.4 µM)
  MIC range: 0.12 to 64 µg/mL
[18]
  % S: 75%
  MIC50: 2 µg/mL (≈ 3.61 µM)
[19]
  % S: 15%
  MIC50: 32 µg/mL (≈ 57.7 µM)
  MIC90: >32 µg/mL
[20]
  % S: 67%
  MIC50: ≤0.25 µg/mL
  MIC90: >64 µg/mL
[21]
  % S: 2%
  MIC50: 32 µg/mL (≈ 57.7 µM)
  MIC90: >32 µg/mL
[22]
  % S: 87%
  MIC50: ≤0.25 µg/mL
  MIC90: 32 µg/mL (≈ 57.7 µM)
[23]
  MIC50: 0.025 µg/mL (≈ 0.0451 µM)
  MIC90: 0.1 µg/mL (≈ 0.18 µM)
  MIC range: 0.012 to 0.1 µg/mL

## CO[C@H]1/C=C/O[C@@]2(C)Oc3c(C)c(O)c4c(O)c(c5c(nc6cc(C)ccn65)c4c3C2=O)NC(=O)/C(C)=C\C=C\[C@H](C)[C@H](O)[C@@H](C)[C@@H](O)[C@@H](C)[C@H](OC(C)=O)[C@@H]1C [rifaximin]
[24]
  % S: 85.4%
  MIC50: 16 µg/mL (≈ 20.4 µM)
  MIC90: 64 µg/mL (≈ 81.4 µM)
  MIC range: 4 to 64 µg/mL
[25]
  % S: 34.8%
  MIC50: 64 µg/mL (≈ 81.4 µM)
  MIC90: 128 µg/mL (≈ 163 µM)
  MIC range: 32 to 128 µg/mL
[26]
  MIC50: 0.25 µg/mL (≈ 0.318 µM)
  MIC90: >1024 µg/mL
[27]
  % S: 100%
  MIC50: 4 µg/mL (≈ 5.09 µM)
  MIC90: 16 µg/mL (≈ 20.4 µM)
  MIC range: ≤0.25 to 16 µg/mL
[28]
  MIC50: 4 µg/mL (≈ 5.09 µM)
  MIC90: 32 µg/mL (≈ 40.7 µM)
  MIC range: ≤0.06 to 32 µg/mL
[29]
  MIC50: 0.25 µg/mL (≈ 0.318 µM)
  MIC90: 0.5 µg/mL (≈ 0.636 µM)
  MIC range: 0.25 to 4 µg/mL
[30]
  MIC50: 1 µg/mL (≈ 1.27 µM)
  MIC90: >1024 µg/mL
[31]
  MIC50: 0.25 µg/mL (≈ 0.318 µM)
  MIC90: 0.5 µg/mL (≈ 0.636 µM)
  MIC range: 0.25 to 1 µg/mL
[32]
  % S: 43.6%
  MIC50: 64 µg/mL (≈ 81.4 µM)
  MIC90: 128 µg/mL (≈ 163 µM)
  MIC range: 8 to 128 µg/mL
[33]
  MIC50: 8 µg/mL (≈ 10.2 µM)
  MIC90: >1024 µg/mL
[34]
  MIC50: >1024 µg/mL
  MIC90: >1024 µg/mL
